From US20040077580A1, “Antisense modulation of PI3K P85 Expression” (priority 2000, published 2004)
Strand notation (5' to 3'): a small letter for the sugar, then the base; units joined by * are phosphorothioate-linked, units joined directly phosphodiester-linked; [ ] holds rarer units or linkages, { } end groups; capitals alone tell only the bases. e = 2'-O-(2-methoxyethyl) (MOE); [5mC] = 5-methylcytosine; d = 2'-deoxy (DNA)

Test system: human PI3K p85 RNA
Assay: Inhibition of human PI3K p85 mRNA levels by antisense oligonucleotides, real-time quantitative PCR
Type: cell-based
Settings: chimeric phosphorothioate oligonucleotides with 2′-MOE wings and deoxy gap, oligonucleotide 150 nM, averaged from two experiments
Description: Cells were harvested 16 hours after oligonucleotide treatment.
Poly(A)+ mRNA was isolated according to Miura et al., Clin. Chem., 1996, 42, 1758-1764. Other methods for poly(A)+ mRNA isolation are taught in, for example, Ausubel, F. M. et al., Current Protocols in Molecular Biology, Volume 1, pp. 4.5.1-4.5.3, John Wiley & Sons, Inc., 1993. […] 60 μL lysis buffer (10 mM Tris-HCl, pH 7.6, 1 mM EDTA, 0.5 M NaCl, 0.5% NP-40, 20 mM vanadyl-ribonucleoside complex) was added to each well, the plate was gently agitated and then incubated at room temperature for five minutes. 55 μL of lysate was transferred to Oligo d(T) coated 96-well plates (AGCT Inc., Irvine Calif.). Plates were incubated for 60 minutes at room temperature, washed 3 times with 200 μL of wash buffer (10 mM Tris-HCl pH 7.6, 1 mM EDTA, 0.3 M NaCl). After the final wash, the plate was blotted on paper towels to remove excess wash buffer and then air-dried for 5 minutes. 60 μL of elution buffer (5 mM Tris-HCl pH 7.6), preheated to 70° C. was added to each well, the plate was incubated on a 90° C. hot plate for 5 minutes, and the eluate was then transferred to a fresh 96-well plate.
PI3K p85 probes and primers were designed to hybridize to the human PI3K p85 sequence, using published sequence information (GenBank accession number M61906, incorporated herein as SEQ ID NO: 1).
Target sites are indicated by nucleotide numbers, as given in the sequence source reference (Genbank accession no. M61906), to which the oligonucleotide binds. All compounds in Table 1 are oligodeoxynucleotides with phosphorothioate backbones (internucleoside linkages) throughout. […] Data are averages from two experiments. If present, “N.D.” indicates “no data”.
In accordance with the present invention, a second series of oligonucleotides targeted to human PI3K p85 were synthesized. Target sites are indicated by nucleotide numbers, as given in the sequence source reference (Genbank accession no. M61906), to which the oligonucleotide binds.
Cytidine residues in the 2′-MOE wings are 5-methylcytidines.
Data were obtained by real-time quantitative PCR as described in other examples herein and are averaged from two experiments. If present, “N.D.” indicates “no data”.

Going from “28029 (antisense eA*e[5mC]*e[5mC]*eA*dC*dA*dG*dA*dA*dC*dT*dG*dA*dA*eG*eG*eT*eT) [compound 28029]” to “28026 (antisense eA*eG*eT*eA*dG*dG*dT*dT*dT*dT*dG*dG*dT*dG*eG*eT*eT*eT) [compound 28026]”, the “% Inhibition of PI3K p85 mRNA levels” value falls from 57% to 54%.

First: 28032 (antisense eT*eT*eT*e[5mC]*dT*dC*dA*dT*dT*dG*dC*dC*dT*dT*e[5mC]*eA*e[5mC]*eG) [compound 28032]
Second: 28028 (antisense eA*eT*eT*e[5mC]*dA*dG*dC*dA*dT*dT*dT*dT*dG*dT*eA*eA*eG*eG) [compound 28028]
The “% Inhibition of PI3K p85 mRNA levels” value of the first is higher: 35% for the first, 0% for the second.

Compared with “28045 (antisense eG*e[5mC]*e[5mC]*e[5mC]*dT*dT*dT*dG*dC*dT*dT*dT*dC*dC*eA*eG*eA*eG) [compound 28045]”, “28030 (antisense eA*eT*eT*eT*dC*dC*dT*dG*dG*dG*dA*dT*dG*dT*eG*e[5mC]*eG*eG) [compound 28030]” is higher in “% Inhibition of PI3K p85 mRNA levels” value: 0% for the first, 74% for the second.

Compared with “28037 (antisense eT*eT*eG*e[5mC]*dC*dC*dA*dA*dC*dC*dA*dC*dT*dC*eG*eT*eT*e[5mC]) [compound 28037]”, “28021 (antisense eG*eT*eA*eA*dG*dT*dC*dC*dA*dG*dG*dA*dG*dA*eT*eA*eG*e[5mC]) [compound 28021]” is higher in “% Inhibition of PI3K p85 mRNA levels” value: 28% for the first, 43% for the second.

First: 28036 (antisense eT*e[5mC]*eA*eA*dC*dT*dT*dC*dT*dT*dT*dT*dG*dC*e[5mC]*eG*eA*eA) [compound 28036]
Second: 28034 (antisense eT*eT*e[5mC]*eA*dA*dG*dT*dC*dT*dT*dC*dT*dT*dC*e[5mC]*eA*eA*eT) [compound 28034]
The “% Inhibition of PI3K p85 mRNA levels” value of the first is higher: 59% for the first, 28% for the second.

First: 28025 (antisense eG*eT*eT*e[5mC]*dA*dT*dT*dC*dC*dA*dT*dT*dC*dA*eG*eT*eT*eG) [compound 28025]
Second: 28041 (antisense e[5mC]*e[5mC]*eA*e[5mC]*dC*dA*dC*dT*dA*dC*dA*dG*dA*dG*e[5mC]*eA*eG*eG) [compound 28041]
The “% Inhibition of PI3K p85 mRNA levels” value of the first is lower: 22% for the first, 38% for the second.

First: 28046 (antisense eA*eT*e[5mC]*eA*dG*dA*dC*dT*dG*dG*dA*dG*dA*dG*eG*eA*eG*e[5mC]) [compound 28046]
Second: 28031 (antisense e[5mC]*e[5mC]*eG*e[5mC]*dT*dC*dT*dT*dG*dG*dG*dT*dC*dT*eG*eG*e[5mC]*eA) [compound 28031]
The “% Inhibition of PI3K p85 mRNA levels” value of the first is higher: 32% for the first, 15% for the second.

Going from “28047 (antisense eA*eA*eA*eG*dA*dA*dG*dG*dG*dA*dT*dA*dA*dG*e[5mC]*eA*e[5mC]*eT) [compound 28047]” to “28050 (antisense eT*eG*eT*e[5mC]*dT*dG*dG*dG*dT*dC*dC*dA*dC*dC*eG*eT*eG*e[5mC]) [compound 28050]”, the “% Inhibition of PI3K p85 mRNA levels” value rises from 18% to 57%.

First: 28027 (antisense eT*eT*eA*eT*dT*dC*dA*dT*dA*dC*dC*dG*dT*dT*eG*eT*eT*eG) [compound 28027]
Second: 28040 (antisense e[5mC]*e[5mC]*eT*eG*dT*dT*dT*dA*dC*dT*dG*dC*dT*dC*eT*e[5mC]*e[5mC]*e[5mC]) [compound 28040]
The “% Inhibition of PI3K p85 mRNA levels” value of the first is higher: 45% for the first, 0% for the second.

First: 28039 (antisense e[5mC]*eT*eT*eT*dG*dT*dT*dT*dC*dG*dG*dT*dT*dG*e[5mC]*eT*eG*e[5mC]) [compound 28039]
Second: 28055 (antisense eA*eA*e[5mC]*eT*dG*dA*dA*dA*dT*dA*dA*dC*dA*dA*e[5mC]*eT*eT*eA) [compound 28055]
The “% Inhibition of PI3K p85 mRNA levels” value of the first is higher: 46% for the first, 14% for the second.

Same assay, conditions: phosphorothioate oligodeoxynucleotides, oligonucleotide 150 nM, averages from two experiments

Compared with “28007 (antisense AAAGAAGGGATAAGCACT; DNA, all phosphorothioate, methylation of C not given here) [compound 28007]”, “28014 (antisense CCTTCAGCAAAACAAAAC; DNA, all phosphorothioate, methylation of C not given here) [compound 28014]” is higher in “% Inhibition of PI3K p85 mRNA levels” value: 7% for the first, 24% for the second.

First: 28006 (antisense ATCAGACTGGAGAGGAGC; DNA, all phosphorothioate, methylation of C not given here) [compound 28006]
Second: 28008 (antisense CTGCCTCTCTCTCCTCCG; DNA, all phosphorothioate, methylation of C not given here) [compound 28008]
The “% Inhibition of PI3K p85 mRNA levels” value of the first is higher: 27% for the first, 0% for the second.

First: 27979 (antisense TTCAATGGCTTCCACGAG; DNA, all phosphorothioate, methylation of C not given here) [compound 27979]
Second: 28004 (antisense ACATTGAGGGAGTCGTTG; DNA, all phosphorothioate, methylation of C not given here) [compound 28004]
The “% Inhibition of PI3K p85 mRNA levels” value of the first is higher: 6% for the first, 0% for the second.

First: 27994 (antisense TTCAAGTCTTCTTCCAAT; DNA, all phosphorothioate, methylation of C not given here) [compound 27994]
Second: 27977 (antisense ATCTTCTTCTCTTTCCTT; DNA, all phosphorothioate, methylation of C not given here) [compound 27977]
The “% Inhibition of PI3K p85 mRNA levels” value of the first is higher: 15% for the first, 0% for the second.

Compared with “27982 (antisense ATTTCACTGTAAACGGCT; DNA, all phosphorothioate, methylation of C not given here) [compound 27982]”, “27997 (antisense TTGCCCAACCACTCGTTC; DNA, all phosphorothioate, methylation of C not given here) [compound 27997]” is higher in “% Inhibition of PI3K p85 mRNA levels” value: 19% for the first, 55% for the second.

Going from “27990 (antisense ATTTCCTGGGATGTGCGG; DNA, all phosphorothioate, methylation of C not given here) [compound 27990]” to “27993 (antisense ATCCTTTGTATTTCTTTC; DNA, all phosphorothioate, methylation of C not given here) [compound 27993]”, the “% Inhibition of PI3K p85 mRNA levels” value falls from 52% to 15%.

Going from “28016 (antisense CCAACAAAACAGTCCAAA; DNA, all phosphorothioate, methylation of C not given here) [compound 28016]” to “27981 (antisense GTAAGTCCAGGAGATAGC; DNA, all phosphorothioate, methylation of C not given here) [compound 27981]”, the “% Inhibition of PI3K p85 mRNA levels” value rises from 6% to 14%.

Compared with “28011 (antisense GACGTGCCTTTCTGCTAC; DNA, all phosphorothioate, methylation of C not given here) [compound 28011]”, “27998 (antisense GTCTTCAGTGTTTTCATT; DNA, all phosphorothioate, methylation of C not given here) [compound 27998]” is lower in “% Inhibition of PI3K p85 mRNA levels” value: 28% for the first, 0% for the second.

“27995 (antisense ATTGGTCTCTCGTCTTTC; DNA, all phosphorothioate, methylation of C not given here) [compound 27995]” and “28001 (antisense CCACCACTACAGAGCAGG; DNA, all phosphorothioate, methylation of C not given here) [compound 28001]” are the same in “% Inhibition of PI3K p85 mRNA levels” value: 0% for the first, 0% for the second.

Compared with “28002 (antisense CTTTACTTCGCCGTCCAC; DNA, all phosphorothioate, methylation of C not given here) [compound 28002]”, “27988 (antisense ATTCAGCATTTTGTAAGG; DNA, all phosphorothioate, methylation of C not given here) [compound 27988]” is lower in “% Inhibition of PI3K p85 mRNA levels” value: 41% for the first, 1% for the second.

For “27989 (antisense ACCACAGAACTGAAGGTT; DNA, all phosphorothioate, methylation of C not given here) [compound 27989]”, the “% Inhibition of PI3K p85 mRNA levels” value was 0%.
